In article PMC6792352, “Limited Chemical Structural Diversity Found to Modulate Thyroid Hormone Receptor in the Tox21 Chemical Library” (Environmental Health Perspectives, 2019):
Where two headings read alike, the source gives them in different places.

Experiments:
[1] = test system: thyroid hormone receptor (endogenous TRα and TRβ); assay: GH3-TRE-Ag primary qHTS, luciferase reporter, agonist mode (TOX21_TR_LUC_GH3_Agonist, aeid 803); type: cell-based, rat; details: for GH3-TRE-Ag AC50 hitc: hit call from tcpl; for TR_LUC_GH3_Agonist_EMAX (% Control): Table S5
[2] = test system: thyroid hormone receptor (endogenous TRα and TRβ); assay: GH3-TRE-Ag-Followup confirmation (TOX21_TR_LUC_GH3_Agonist_Followup, aeid 2226); type: cell-based, rat; details: for AC50: confirmation, agonist mode, read-out: GH3-TRE-Ag-Followup AC50; for GH3-TRE-Ag-Followup hitc: hit call from tcpl
human RXRα = target: T1, human RXRα (Homo sapiens, UniProt P19793); assay: RXRa-bla-Ag mammalian one-hybrid beta-lactamase assay (TOX21_TR_RXR_BLA_Agonist_Followup_ratio, aeid 2253); type: cell-based; details: for AC50: HEK 293T one-hybrid, agonist mode, inactive set to 1,000, read-out: RXRa-bla-Ag AC50; for tr-followup-rxr-bla-agonist-1 hitc: hit call from tcpl; for Emax: read-out: EMax (% of Control) tr-followup-rxr-bla-agonist-1
T1 construct: host or cells: GeneBLAzer UAS-bla HEK 293T
T1 sequence (P19793 227-458 limits assumed): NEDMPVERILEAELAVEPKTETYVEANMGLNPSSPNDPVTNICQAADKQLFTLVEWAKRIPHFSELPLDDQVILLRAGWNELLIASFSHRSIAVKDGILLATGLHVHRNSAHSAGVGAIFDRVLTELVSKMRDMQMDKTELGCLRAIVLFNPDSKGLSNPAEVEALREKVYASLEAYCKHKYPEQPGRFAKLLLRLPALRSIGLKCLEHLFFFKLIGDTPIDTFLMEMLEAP

[3] = target: T2, TRα ligand-binding domain (Homo sapiens, UniProt P10827); assay: TRa-coa LanthaScreen TR-FRET coactivator (SRC-2 peptide) recruitment, agonist (TOX21_TRA_COA_Agonist_Followup_ratio, aeid 2230); type: biochemical; details: for AC50: cell-free coactivator recruitment, read-out: TRa-coa-Ag AC50; for TRa-coa hitc: hit call from tcpl, agonist; for Emax: read-out: EMax (% of Control) tra-coa-agonist-followup-1
T2 construct: the receptor LBDs expressed as glutathione S-transferase (GST) fusion proteins; purchased
T2 sequence (P10827 163-410 isoform P10827-2 limits assumed, other chains not shown): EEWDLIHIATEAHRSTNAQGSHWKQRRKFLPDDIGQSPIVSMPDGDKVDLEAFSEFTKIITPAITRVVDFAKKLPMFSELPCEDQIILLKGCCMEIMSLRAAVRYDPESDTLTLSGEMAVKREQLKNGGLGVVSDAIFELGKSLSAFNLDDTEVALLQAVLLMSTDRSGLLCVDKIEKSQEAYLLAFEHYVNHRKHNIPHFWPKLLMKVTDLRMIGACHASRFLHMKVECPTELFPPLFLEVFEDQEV

[4] = Global cytotoxicity: eighteen Tox21 cell viability assays; type: cell-based
[5] = test system: Tox21 cell viability assays (different cell types); assay: as above; type: cell-based
[6] = test system: thyroid hormone receptor (TR); assay: Classification of TR actives across characterization assays (TR-Ag / RXR-Ag; TR model binary); details: for Categorization Code: TR agonist characterization; for Classification: TR-Ag = TR agonist, RXR-Ag = RXR agonist
How it was run: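 GH3-TRE qHTS agonist, antagonist and viability modes over 8,305 compounds; 84 candidates rescreened in GH3-TRE-Ag, TRβ- and RXRα-UAS-bla HEK 293T one-hybrid assays, HEK293T viability, and TRα/TRβ coactivator recruitment. Actives classified binary after removing pharmaceuticals.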

GH3-TRE-Luc cell line [7] = details: rat, 24 h
in vitro [8] = details: rat
[9] = target: T3, human TRβ ligand-binding domain (Homo sapiens, UniProt P10828); assay: TRb-bla agonist mammalian one-hybrid beta-lactamase assay (TOX21_TRB_BLA_Agonist_Followup_ratio, aeid 2236); type: cell-based; design: host or cells: GeneBLAzer UAS-bla HEK 293T; details: for AC50: HEK 293T one-hybrid, agonist mode, read-out: TRb-bla-Ag AC50; for TRb-bla hitc: hit call from tcpl, agonist; for Emax: read-out: EMax (% of Control) trb-bla-agonist-followup-1
T3 sequence (P10828 217-461 limits assumed): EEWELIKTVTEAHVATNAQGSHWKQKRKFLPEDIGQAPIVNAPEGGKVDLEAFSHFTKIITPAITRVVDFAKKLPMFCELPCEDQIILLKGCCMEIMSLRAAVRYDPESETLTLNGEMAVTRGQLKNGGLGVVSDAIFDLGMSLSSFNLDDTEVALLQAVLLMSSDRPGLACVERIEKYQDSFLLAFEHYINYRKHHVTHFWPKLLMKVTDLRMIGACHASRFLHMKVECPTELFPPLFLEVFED

[10] = target: T3, human TRβ ligand-binding domain; assay: TRb-coa LanthaScreen TR-FRET coactivator (SRC-2 peptide) recruitment, agonist (TOX21_TRB_COA_Agonist_Followup_ratio, aeid 2244); type: biochemical; design: host or cells: GeneBLAzer UAS-bla HEK 293T; details: for AC50: cell-free coactivator recruitment, read-out: TRb-coa-Ag AC50; for TRb-coa hitc: hit call from tcpl, agonist; for Emax: read-out: EMax (% of Control) trb-coa-agonist-followup-1
[11] = GH3-TRE-Via cell viability, CellTiter-Fluor (TOX21_TR_LUC_GH3_Antagonist_viability, aeid 805); details: rat
GH3-TRE-Luc cell line [12] = assay: as above
[13] = test system: thyroid hormone receptor (endogenous TRα and TRβ); assay: GH3-TRE-Antag primary qHTS, luciferase reporter, antagonist mode with 1 nM T3 (TOX21_TR_LUC_GH3_Antagonist, aeid 804); type: cell-based, rat
in vitro [14] = details: rat, gh3-tre-luc cells, AC50 (uM) modified / 1000
[15] = primary qHTS, agonist mode, 24 h, top concentration 92 μM, read-out: GH3-TRE-Ag AC50
[16] = antagonist candidates, inactive samples arbitrarily set to AC50=1,000 μM, read-out: GH3-TRE-Ag AC50
[17] = median over 18 Tox21 cell viability assays, inactive set to 1,000, read-out: Global cytotoxicity AC50 median
[18] = percentage of 18 Tox21 viability assays with hitc=1
[19] = antagonist mode, 1 nM T3; read-out: GH3-TRE-Antag AC50

Row | SMILES | GH3-TRE-Ag AC50 hitc [1] | EMax (% of Control) gh3-tre-agonist-followup-1_agonist [2] | AC50 [2] [µM] | GH3-TRE-Ag-Followup hitc [2] | AC50 [4] [µM] | GLOBAL CYTOTOXICITY cytotox.number_Active [5] | Categorization Code [6] | Classification [6] | AC50 at 24 h (in vitro [8]) [µM] | AC50 [1, 16] [µM] | AC50 [13, 19] [µM] | Active in global cytotoxicity assays (%) [5] [%] | also measured
1 | O=C(O)CCNC(=O)c1ccccc1 [Betamipron, reference compound] | 1 | 90.7 % of Control | 1.68 | 1 | > 92 | 0 | TR-Ag | TR-Ag | > 92 | – | – | – | EMax (% of Control) gh3-tre-agonist [1]: 72.8 % of Control; activity in GH3-TRE agonist assay [1]: concentration-dependent activity; AC50 [1, 15]: 11.8 µM; activity in RXRα-bla-Ag assay (human RXRα): lack of activity; AC50 (human RXRα): > 92 µM; tr-followup-rxr-bla-agonist-1 hitc (human RXRα): 0; Emax (human RXRα): 2.9%; AC50 [3]: 10.4 µM; TRa-coa hitc [3]: 1; Emax [3]: 120%; GLOBAL CYTOTOXICITY cytotox.median [5]: >92; TR_LUC_GH3_Antagonist_viability hitc (GH3-TRE-Luc cell line [7]): 0; AC50 [9]: 14 µM; TRb-bla hitc [9]: 1; Emax [9]: 85.5%; AC50 [10]: 11.8 µM; TRb-coa hitc [10]: 1; Emax [10]: 30.8%
2 | CCCc1c(OCCCCc2nnn[nH]2)ccc(C(C)=O)c1O [Tomelukast, reference compound] | – | – | – | – | – | – | – | – | – | > 92 | – | – | AC50 [4, 17]: 14.4 µM; Active in global cytotoxicity assays (%) [5, 18]: 9.1%; AC50 at 24 h [11]: > 92 µM
3 | COc1cc(C)c(/C=C/C(C)=C/C=C/C(C)=C/C(=O)O)c(C)c1C [Acitretin, reference compound] | 1 | 79.4 % of Control | 0.94 | 1 | – | 0 | RXR-Ag | RXR-Ag | > 92 | – | – | – | EMax (% of Control) gh3-tre-agonist [1]: 24.4 % of Control; AC50 (human RXRα): 0.564 µM; tr-followup-rxr-bla-agonist-1 hitc (human RXRα): 1; Emax (human RXRα): 105%; AC50 [3]: > 92 µM; TRa-coa hitc [3]: 0; Emax [3]: 3.4%; AC50 ([4]; median over 18 Tox21 cell viability assays (Judson et al. 2016, invitrodb_v2), read-out: Global cytotoxicity AC50 median): > 92 µM; GLOBAL CYTOTOXICITY cytotox.median [5]: >92; Emax [9]: 4.1%; Emax [10]: 4.8%; TR_LUC_GH3_Antagonist_viability hitc (GH3-TRE-Luc cell line [12]; hit call from tcpl): 0
4 | CC(C)C[C@H](NC(=O)[C@H](CCc1ccccc1)NC(=O)CN1CCOCC1)C(=O)N[C@@H](Cc1ccccc1)C(=O)N[C@@H](CC(C)C)C(=O)[C@@]1(C)CO1 [Carfilzomib] | – | – | – | – | 0.46 | – | – | – | 0.037 | > 92 | 0.025 | 64.4 | active rate in Tox21 viability/cytotoxicity assays [5]: 64%
5 | CCCCCOc1ccc(C2SC(=O)NC2=O)cc1OCC (stereo not drawn) [Risarestat, reference compound] | – | – | – | – | – | – | – | – | – | > 92 | – | – | AC50 [4, 17]: 16.4 µM; Active in global cytotoxicity assays (%) [5, 18]: 11.9%; AC50 at 24 h [11]: > 92 µM; cytotoxicity in GH3 viability assay (GH3-TRE-Luc cell line [12]): lacked cytotoxicity
6 | Cc1cccc(Nc2ccccc2C(=O)O)c1C [Mefenamic acid] | – | – | – | – | 50.8 | – | – | – | > 92 | > 92 | 19.5 | 4.5 | active rate in Tox21 viability/cytotoxicity assays [5]: 4.5%; CC50 at 24 h (in vitro [14]): > 50 µM
7 | C=C(c1ccc(C(=O)O)cc1)c1cc2c(cc1C)C(C)(C)CCC2(C)C [Bexarotene, reference compound] | 0 | 37.1 % of Control | 0.017 | 1 | 23.9 | 15 | RXR-Ag | RXR-Ag | 10.4 | – | – | – | EMax (% of Control) gh3-tre-agonist [1]: 26.0 % of Control; AC50 [1, 15]: 0.0077 µM; AC50 [3]: > 92 µM; TRa-coa hitc [3]: 0; Emax [3]: -0.4%; GLOBAL CYTOTOXICITY cytotox.median [5]: 23.9; TR_LUC_GH3_Antagonist_viability hitc (GH3-TRE-Luc cell line [7]): 1; AC50 [9]: > 92 µM; TRb-bla hitc [9]: 0; Emax [9]: 11.8%; AC50 [10]: > 92 µM; TRb-coa hitc [10]: 0; Emax [10]: -0.427%
8 | C=C1CC[C@@H]2[C@](C)(CO)[C@H](O)CC[C@@]2(C)[C@@H]1C/C=C1/C(=O)OC[C@H]1O [Andrographolide] | – | – | – | – | – | – | – | – | – | > 92 | 24.6 | – | AC50 at 24 h [11]: 19.4 µM
9 | COc1cccc2c1C(=O)c1c(O)c3c(c(O)c1C2=O)C[C@@](O)(C(C)=O)C[C@@H]3O[C@H]1C[C@H](N)[C@H](O)[C@H](C)O1 [Daunorubicin] | – | – | – | – | 10.5 | – | – | – | 1.01 | – | – | 66.1 | AC50 ([1]; read-out: GH3-TRE-Ag AC50): > 92 µM; AC50 ([13]; read-out: GH3-TRE-Antag AC50; antagonist mode, 1 nM T3): 0.7 µM; active rate in Tox21 viability/cytotoxicity assays [5]: two-thirds
10 | CCCCCCCCCCCCn1cc[n+](C)c1.[I-] [1-Dodecyl-3-methylimidazolium iodide] | – | – | – | – | – | – | – | – | – | > 92 | 1.33 | – | AC50 [4, 17]: 41.1 µM; Active in global cytotoxicity assays (%) [5, 18]: 74.2%; AC50 (in vitro [8]): 5.1 µM
11 | CN(C)c1ccc(/N=N/c2ccccc2C(=O)O)cc1 [Methyl red] | – | – | – | – | 48.5 | – | – | – | 14.6 | > 92 | 8.79 | 48.5 | –
12 | COC(=O)C[C@](O)(CCCC(C)(C)O)C(=O)O[C@@H]1C(OC)=C[C@]23CCCN2CCc2cc4c(cc2[C@H]13)OCO4 [Omacetaxine mepesuccinate] | – | – | – | – | 0.06 | – | – | – | 0.057 | > 92 | 0.029 | 60.0 | CC50 at 24 h (in vitro [14]): 0.0816 µM
13 | O=C(O)Cc1cc(I)c(Oc2ccc(O)c(I)c2)c(I)c1 [Tiratricol, reference compound] | 1 | 105.1 % of Control | 0.0002 | 1 | 27 | 4 | TR-Ag | TR-Ag | > 92 | – | – | – | TR_LUC_GH3_Agonist_EMAX (% Control) [1]: 104.7 % Control; GLOBAL CYTOTOXICITY cytotox.median ([5]; median over Tox21 viability assays): 27.0; TR_LUC_GH3_Antagonist_viability hitc (GH3-TRE-Luc cell line [7]): 0
14 | N[C@@H](Cc1cc(I)c(Oc2ccc(O)c(I)c2)c(I)c1)C(=O)O [3,5,3ʹ-Triiodothyronine, reference compound] | […] | […] | […] | […] | > 92 | 0 | TR-Ag | TR-Ag | 41.7 | – | – | – | EMax (% of Control) gh3-tre-agonist [1]: […]; TR_LUC_GH3_Agonist_EMAX (% Control) [1]: […]; AC50 ([1]; Table S5, chemical level, listed as 3,5,3'-Triiodothyronine, read-out: TR_LUC_GH3_Agonist_AC50): […]; GLOBAL CYTOTOXICITY cytotox.median [5]: >92; TR_LUC_GH3_Antagonist_viability hitc (GH3-TRE-Luc cell line [7]): […]
15 | c1cc(N(CC2CO2)CC2CO2)ccc1Cc1ccc(N(CC2CO2)CC2CO2)cc1 (stereo not drawn) [4,4ʹ-Methylenebis(N,N-diglycidylaniline)] | – | – | – | – | – | – | – | – | – | > 92 | 8.03 | – | AC50 [4, 17]: 45.3 µM; Active in global cytotoxicity assays (%) [5, 18]: 59.1%; AC50 (in vitro [8]): 11.1 µM
